Measurements published in PubChem BioAssay AID330 (DTP/NCI, 2004).
Where “and” joins values, the source holds several entries; their conditions need not be identical. Equal entries are not always repeated. Inconclusive results and toxic doses are left out. Rule for the calls: active = survival T/C of 150% or more; inactive = T/C below 125% in these data.

System: P388 leukemia ip, CD2F1 mice, survival T/C
Assay: NCI In Vivo Anticancer Drug Screen. Data for tumor model P388 Leukemia (intraperitoneal) in CD2F1 (CDF1) mice
Conditions: endpoint: median survival time, higher = longer survival
Summary of the method: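 Mice carrying the transplanted tumor received test compound or vehicle. Survival was recorded in each group, and the value is the treated-group measurement divided by that of the vehicle-treated control group.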

[1] = dose: 12.5 mg/kg/injection, schedule: Q01DX009 (ip), vehicle: saline with Tween-80
[2] = dose: 25.0 mg/kg/injection, schedule: Q01DX009 (ip), vehicle: saline with Tween-80
[3] = dose: 50.0 mg/kg/injection, schedule: Q01DX009 (ip), vehicle: saline with Tween-80
[4] = dose: 100.0 mg/kg/injection, schedule: Q01DX009 (ip), vehicle: saline with Tween-80
[5] = dose: 200.0 mg/kg/injection, schedule: Q01DX009 (ip), vehicle: saline with Tween-80
[6] = dose: 60.0 mg/kg/injection, schedule: Q01DX005 (ip), vehicle: saline with Tween-80
[7] = dose: 240.0 mg/kg/injection, schedule: Q01DX005 (ip), vehicle: saline with Tween-80
[8] = dose: 50.0 mg/kg/injection, schedule: Q01DX005 (ip), vehicle: saline with Tween-80
[9] = dose: 100.0 mg/kg/injection, schedule: Q01DX005 (ip), vehicle: saline with Tween-80
[10] = dose: 200.0 mg/kg/injection, schedule: Q01DX005 (ip), vehicle: saline with Tween-80
[11] = dose: 100.0 mg/kg/injection, schedule: Q04DX002 (ip), vehicle: saline with Tween-80
[12] = dose: 200.0 mg/kg/injection, schedule: Q04DX002 (ip), vehicle: saline with Tween-80

Measured: T/C

N#C/C(C(=N)c1ccccc1)=C1\SS/C(=C(\C#N)C(=N)c2ccccc2)S1
inactive: dose: 1.56 mg/kg/injection, schedule: Q01DX009 (ip), vehicle: saline with Tween-80 99 % of control and 90 % of control | dose: 3.13 mg/kg/injection, schedule: Q01DX009 (ip), vehicle: saline with Tween-80 99 % of control and 103 % of control | dose: 6.25 mg/kg/injection, schedule: Q01DX009 (ip), vehicle: saline with Tween-80 104 % of control and 86 % of control and 90 % of control | [1] 86 % of control and 97 % of control | [2] 86 % of control | [3] 105 % of control | [4] 107 % of control | [5] 105 % of control

Cn1c(O)c(N=O)c(=O)n(C)c1=O
inactive: [2] 105 % of control | [3] 100 % of control | [4] 111 % of control

CCCCCCCC(Nc1nncs1)Nc1nncs1
inactive: dose: 15.0 mg/kg/injection, schedule: Q01DX005 (ip), vehicle: saline with Tween-80 101 % of control | dose: 30.0 mg/kg/injection, schedule: Q01DX005 (ip), vehicle: saline with Tween-80 92 % of control | [6] 87 % of control and 90 % of control | [7] 91 % of control

CCCCCCCCCCNCCSSCc1ccc(OC)cc1
inactive: dose: 6.25 mg/kg/injection, schedule: Q01DX005 (ip), vehicle: Klucel (hydroxypropylcellulose) (HPC) 103 % of control | dose: 12.5 mg/kg/injection, schedule: Q01DX005 (ip), vehicle: Klucel (hydroxypropylcellulose) (HPC) 103 % of control | dose: 25.0 mg/kg/injection, schedule: Q01DX005 (ip), vehicle: Klucel (hydroxypropylcellulose) (HPC) 100 % of control

Cc1nn(-c2ccccc2)nc1C(=O)Nc1ccccc1C(=O)NCC1CC1
inactive: [6] 91 % of control | dose: 120.0 mg/kg/injection, schedule: Q01DX005 (ip), vehicle: saline with Tween-80 90 % of control and 94 % of control and 96 % of control | [7] 103 % of control and 95 % of control and 96 % of control

O=C(c1ccccc1)C(c1ccccc1)n1nc2c(c1-c1ccccc1)CCC2 (stereo not drawn)
inactive: dose: 12.5 mg/kg/injection, schedule: Q01DX001 (ip), vehicle: Klucel (hydroxypropylcellulose) (HPC) 100 % of control | dose: 25.0 mg/kg/injection, schedule: Q01DX001 (ip), vehicle: Klucel (hydroxypropylcellulose) (HPC) 95 % of control | dose: 50.0 mg/kg/injection, schedule: Q01DX001 (ip), vehicle: Klucel (hydroxypropylcellulose) (HPC) 98 % of control | dose: 100.0 mg/kg/injection, schedule: Q01DX001 (ip), vehicle: Klucel (hydroxypropylcellulose) (HPC) 100 % of control

CC1(C)OC2CC(=O)OCC23C1=C(O)C(=O)C1(C)C3CCC2(C)C(c3ccoc3)OC(=O)C3OC321 (stereo not drawn)
inactive: dose: 0.5 mg/kg/injection, schedule: Q01DX009 (ip), vehicle: saline + alcohol 101 % of control | dose: 1.0 mg/kg/injection, schedule: Q01DX009 (ip), vehicle: saline + alcohol 104 % of control | dose: 2.0 mg/kg/injection, schedule: Q01DX009 (ip), vehicle: saline + alcohol 106 % of control | dose: 4.0 mg/kg/injection, schedule: Q01DX009 (ip), vehicle: saline + alcohol 106 % of control | dose: 8.0 mg/kg/injection, schedule: Q01DX009 (ip), vehicle: saline + alcohol 101 % of control

CCCCCCCCCCCC(=O)N(CCOC(=O)c1ccco1)CCOC(=O)c1ccco1
inactive: [3] 108 % of control | [4] 91 % of control | [5] 87 % of control

Nc1ccc(/C=C/c2ccc(N)cc2S(=O)(=O)O)c(S(=O)(=O)O)c1
inactive: dose: 25.0 mg/kg/injection, schedule: Q01DX009 (ip), vehicle: suspension in saline 99 % of control | dose: 50.0 mg/kg/injection, schedule: Q01DX009 (ip), vehicle: saline 104 % of control | dose: 50.0 mg/kg/injection, schedule: Q01DX009 (ip), vehicle: suspension in saline 95 % of control | dose: 100.0 mg/kg/injection, schedule: Q01DX009 (ip), vehicle: saline 104 % of control | dose: 100.0 mg/kg/injection, schedule: Q01DX009 (ip), vehicle: suspension in saline 99 % of control | dose: 200.0 mg/kg/injection, schedule: Q01DX009 (ip), vehicle: saline 108 % of control | dose: 200.0 mg/kg/injection, schedule: Q01DX009 (ip), vehicle: suspension in saline 107 % of control | dose: 400.0 mg/kg/injection, schedule: Q01DX009 (ip), vehicle: saline 110 % of control

CCCCCN(CCCCC)CC(O)c1ccc(Cl)c2ccccc12 (stereo not drawn)
inactive: [8] 103 % of control | [9] 106 % of control | [10] 103 % of control

CC1=C(C)C[C@](C)(S(=O)(=O)N2CCOCC2)S(=O)C1 (stereo partly drawn)
inactive: dose: 60.0 mg/kg/injection, schedule: Q01DX005 (ip), vehicle: saline 105 % of control | dose: 120.0 mg/kg/injection, schedule: Q01DX005 (ip), vehicle: saline 98 % of control | dose: 240.0 mg/kg/injection, schedule: Q01DX005 (ip), vehicle: saline 111 % of control

CCOC(=O)/C=C(\C)NC1CC(=O)NC1=O (stereo not drawn)
inactive: dose: 50.0 mg/kg/injection, schedule: Q01DX009 (ip), vehicle: distilled water + alcohol 104 % of control | dose: 100.0 mg/kg/injection, schedule: Q01DX009 (ip), vehicle: distilled water + alcohol 108 % of control

COC(=O)CCCC1=NC2=CC=CC3=NC(C)=NC(=N1)N23
inactive: [1] 123 % of control | [2] 114 % of control | [3] 98 % of control | [4] 104 % of control

NC(C[O-])C(=O)[O-].NCC(=O)[O-].[Mn+3] (stereo not drawn)
inactive: [11] 114 % of control | [12] 113 % of control

CN1C(=O)c2ccccc2N(C)C12CCN(Cc1ccccc1)CC2
inactive: dose: 50.0 mg/kg/injection, schedule: Q01DX005 (ip), vehicle: distilled water + alcohol 103 % of control | dose: 100.0 mg/kg/injection, schedule: Q01DX005 (ip), vehicle: distilled water + alcohol 100 % of control | dose: 200.0 mg/kg/injection, schedule: Q01DX005 (ip), vehicle: distilled water + alcohol 97 % of control

COc1ccc(CNC(=O)C#CCOC2CCCCO2)cc1 (stereo not drawn)
inactive: dose: 12.5 mg/kg/injection, schedule: Q01DX005 (ip), vehicle: saline with Tween-80 91 % of control | dose: 25.0 mg/kg/injection, schedule: Q01DX005 (ip), vehicle: saline with Tween-80 90 % of control | [8] 86 % of control | [10] 86 % of control

Cc1ccc2c(c1)C(=O)c1ccccc1/C2=C1\c2ccccc2C(=O)c2cc(C)ccc21
inactive: dose: 50.0 mg/kg/injection, schedule: Q01DX005 (ip), vehicle: Klucel + Tween-80 105 % of control | dose: 100.0 mg/kg/injection, schedule: Q01DX005 (ip), vehicle: Klucel + Tween-80 89 % of control | dose: 200.0 mg/kg/injection, schedule: Q01DX005 (ip), vehicle: Klucel + Tween-80 89 % of control

CCn1ncc2c(=O)c(C(=O)c3ccccc3)c[nH]c21
inactive: [8] 99 % of control | [9] 97 % of control | [10] 104 % of control

CCCCCCCCC(=O)c1c(OC)oc(/C=N/NC(N)=O)cc1=O
inactive: dose: 25.0 mg/kg/injection, schedule: Q01DX009 (ip), vehicle: Klucel (hydroxypropylcellulose) (HPC) 92 % of control | dose: 50.0 mg/kg/injection, schedule: Q01DX009 (ip), vehicle: Klucel (hydroxypropylcellulose) (HPC) 89 % of control | dose: 100.0 mg/kg/injection, schedule: Q01DX009 (ip), vehicle: Klucel (hydroxypropylcellulose) (HPC) 92 % of control | dose: 200.0 mg/kg/injection, schedule: Q01DX009 (ip), vehicle: Klucel (hydroxypropylcellulose) (HPC) 91 % of control

O=Cc1c(-c2ccccc2)sc2ccccc2c1=O
inactive: [11] 113 % of control | [12] 98 % of control | dose: 400.0 mg/kg/injection, schedule: Q04DX002 (ip), vehicle: saline with Tween-80 109 % of control

N/C(=C\S(=O)(=O)c1ccccc1)C12CC3CC(CC(C3)C1)C2
inactive: [3] 94 % of control | [4] 94 % of control | [5] 87 % of control
